The source made the active and inactive calls.
Columns and labels:
[1] = molecular target: T1, Voltage-gated N-type calcium channel alpha-1B subunit/Amyloid beta A4 precursor protein-binding family A member 1 (Homo sapiens, UniProt Q00975+Q02410); assay type: protein assay
[2] = molecular target: T1, Voltage-gated N-type calcium channel alpha-1B subunit/Amyloid beta A4 precursor protein-binding family A member 1; assay type: protein assay; remark: listed apart in the source
[3] = molecular target: T2, Short transient receptor potential channel 4 (Mus musculus, UniProt Q9QUQ5); experiment: mouse TRPC4 channel inhibitors, dose response, cell-based, HEK293 TRPC4/mu-opioid, Fluo-4 calcium (AID 434942); assay type: functional;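 further: potency of inhibitors blocking the TRPC4 calcium response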
T2 sequence (Q9QUQ5 whole entry): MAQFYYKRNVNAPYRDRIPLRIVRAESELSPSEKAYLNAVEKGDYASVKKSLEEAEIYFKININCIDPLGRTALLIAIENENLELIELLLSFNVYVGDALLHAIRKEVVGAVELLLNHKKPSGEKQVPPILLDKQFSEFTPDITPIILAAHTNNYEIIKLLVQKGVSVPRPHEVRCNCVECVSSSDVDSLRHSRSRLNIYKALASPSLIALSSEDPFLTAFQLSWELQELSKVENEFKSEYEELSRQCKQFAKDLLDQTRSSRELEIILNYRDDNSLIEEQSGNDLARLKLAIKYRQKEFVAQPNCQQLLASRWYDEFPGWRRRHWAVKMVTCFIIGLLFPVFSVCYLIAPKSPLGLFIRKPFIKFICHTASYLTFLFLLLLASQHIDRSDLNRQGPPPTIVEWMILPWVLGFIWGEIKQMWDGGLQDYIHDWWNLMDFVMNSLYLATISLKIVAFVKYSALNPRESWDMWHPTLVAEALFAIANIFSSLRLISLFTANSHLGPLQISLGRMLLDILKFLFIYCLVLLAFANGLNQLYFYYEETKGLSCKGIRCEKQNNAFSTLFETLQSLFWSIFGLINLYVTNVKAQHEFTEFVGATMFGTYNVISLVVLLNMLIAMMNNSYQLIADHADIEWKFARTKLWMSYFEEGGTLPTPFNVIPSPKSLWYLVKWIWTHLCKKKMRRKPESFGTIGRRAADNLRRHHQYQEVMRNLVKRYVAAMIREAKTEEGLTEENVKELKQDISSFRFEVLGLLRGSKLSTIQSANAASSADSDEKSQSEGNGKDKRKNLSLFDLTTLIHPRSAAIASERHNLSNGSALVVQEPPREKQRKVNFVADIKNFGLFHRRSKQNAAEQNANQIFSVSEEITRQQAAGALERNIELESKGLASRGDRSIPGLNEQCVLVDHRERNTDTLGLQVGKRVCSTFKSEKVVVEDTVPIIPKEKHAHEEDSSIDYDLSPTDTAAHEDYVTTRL

[4] = test system: Vero; experiment: cells; assay type: functional, cell-based; conditions: Chlorocebus sabaeus
[5] = molecular target: T3, Alkaline phosphatase, tissue-nonspecific isozyme (Homo sapiens, UniProt P05186); experiment: human TNAP enzyme inhibitors, SAR follow-up, biochemical, luminescent, dose response (AID 1056)
T3 sequence (P05186 whole entry): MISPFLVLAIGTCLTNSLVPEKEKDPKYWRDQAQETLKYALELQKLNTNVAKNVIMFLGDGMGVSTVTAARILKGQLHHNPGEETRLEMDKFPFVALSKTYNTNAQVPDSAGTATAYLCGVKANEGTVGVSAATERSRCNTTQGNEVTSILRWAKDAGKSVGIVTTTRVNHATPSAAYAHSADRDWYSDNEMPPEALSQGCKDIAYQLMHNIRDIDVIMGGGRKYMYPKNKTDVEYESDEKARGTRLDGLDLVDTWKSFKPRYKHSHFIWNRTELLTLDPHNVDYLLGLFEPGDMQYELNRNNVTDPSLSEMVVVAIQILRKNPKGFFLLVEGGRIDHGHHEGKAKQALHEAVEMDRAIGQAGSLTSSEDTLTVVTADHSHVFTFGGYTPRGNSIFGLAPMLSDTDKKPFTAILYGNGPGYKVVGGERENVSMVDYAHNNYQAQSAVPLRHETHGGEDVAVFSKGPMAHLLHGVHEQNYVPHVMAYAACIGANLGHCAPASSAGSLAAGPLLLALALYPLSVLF

[6] = molecular target: Glyceraldehyde-3-phosphate dehydrogenase (Homo sapiens, UniProt P04406)
[7] = molecular target: Alkaline phosphatase, placental type (Homo sapiens, UniProt P05187); experiment: PLAP enzyme inhibitors, confirmation, biochemical, luminescence (AID 1512); assay type: functional
[8] = molecular target: T2, Short transient receptor potential channel 4; experiment: mouse TRPC4 channel activators, dose response, cell-based, HEK293 TRPC4/mu-opioid, Fluo-4 calcium (AID 434937); assay type: functional
[9] = inhibitors of intracellular T. cruzi replication, confirmation, NIH3T3 host cells, beta-gal luminescence (AID 2044); assay type: functional, cell-based;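 further: intracellular parasites grown in NIH/3T3 mouse fibroblasts as host cells; luminescent beta-galactosidase reporter signal from transgenic T. cruzi replicating inside host cells; inhibitors lower the luminescence signal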
[10] = cells
[11] = cytotoxicity toward NIH3T3 fibroblasts, dose response, counter-screen, cell-based, ATP luminescence, mouse fibroblasts (AID 2010); assay type: functional;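 further: cells exposed to compound for about 90 hours before reading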
[12] = molecular target: T4, Replicative DNA helicase DnaB (Mycobacterium tuberculosis, UniProt P9WMR3); experiment: DnaB intein splicing inhibitors, dose response, biochemical, cell-free fluorescence (AID 449749); assay type: functional
T4 sequence (P9WMR3 whole entry): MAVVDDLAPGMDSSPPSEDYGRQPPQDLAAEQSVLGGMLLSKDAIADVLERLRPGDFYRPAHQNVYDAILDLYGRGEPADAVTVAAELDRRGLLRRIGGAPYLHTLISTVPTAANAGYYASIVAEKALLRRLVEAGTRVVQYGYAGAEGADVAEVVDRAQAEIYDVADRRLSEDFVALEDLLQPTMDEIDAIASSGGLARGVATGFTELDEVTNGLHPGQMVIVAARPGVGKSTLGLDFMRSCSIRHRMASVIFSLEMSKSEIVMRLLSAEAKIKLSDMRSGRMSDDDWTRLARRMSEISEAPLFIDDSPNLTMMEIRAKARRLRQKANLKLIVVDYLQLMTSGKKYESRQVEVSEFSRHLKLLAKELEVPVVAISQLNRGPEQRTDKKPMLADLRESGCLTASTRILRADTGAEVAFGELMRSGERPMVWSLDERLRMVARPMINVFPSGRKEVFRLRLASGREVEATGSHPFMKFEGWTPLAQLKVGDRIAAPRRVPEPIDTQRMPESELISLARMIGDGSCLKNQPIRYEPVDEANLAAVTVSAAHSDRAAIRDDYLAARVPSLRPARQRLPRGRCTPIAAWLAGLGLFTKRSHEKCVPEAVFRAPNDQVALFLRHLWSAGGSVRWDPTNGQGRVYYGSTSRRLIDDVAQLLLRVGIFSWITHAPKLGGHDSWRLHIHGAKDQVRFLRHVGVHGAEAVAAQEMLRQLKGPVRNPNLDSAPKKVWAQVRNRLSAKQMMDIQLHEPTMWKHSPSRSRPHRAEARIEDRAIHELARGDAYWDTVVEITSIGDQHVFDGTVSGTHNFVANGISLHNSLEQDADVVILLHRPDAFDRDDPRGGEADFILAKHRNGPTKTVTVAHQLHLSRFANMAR

[13] = molecular target: T5, Protein RecA (Mycobacterium tuberculosis, UniProt P9WHJ3); experiment: Fluorescence Cell-Free Homogeneous Dose Retest to Identify Inhibitors of RecA-Intein Splicing Activity. [Related pubchem assays (depositor defined):AID2097, AID2223, AID489010, AID492950]; assay type: functional
T5 sequence (P9WHJ3 whole entry): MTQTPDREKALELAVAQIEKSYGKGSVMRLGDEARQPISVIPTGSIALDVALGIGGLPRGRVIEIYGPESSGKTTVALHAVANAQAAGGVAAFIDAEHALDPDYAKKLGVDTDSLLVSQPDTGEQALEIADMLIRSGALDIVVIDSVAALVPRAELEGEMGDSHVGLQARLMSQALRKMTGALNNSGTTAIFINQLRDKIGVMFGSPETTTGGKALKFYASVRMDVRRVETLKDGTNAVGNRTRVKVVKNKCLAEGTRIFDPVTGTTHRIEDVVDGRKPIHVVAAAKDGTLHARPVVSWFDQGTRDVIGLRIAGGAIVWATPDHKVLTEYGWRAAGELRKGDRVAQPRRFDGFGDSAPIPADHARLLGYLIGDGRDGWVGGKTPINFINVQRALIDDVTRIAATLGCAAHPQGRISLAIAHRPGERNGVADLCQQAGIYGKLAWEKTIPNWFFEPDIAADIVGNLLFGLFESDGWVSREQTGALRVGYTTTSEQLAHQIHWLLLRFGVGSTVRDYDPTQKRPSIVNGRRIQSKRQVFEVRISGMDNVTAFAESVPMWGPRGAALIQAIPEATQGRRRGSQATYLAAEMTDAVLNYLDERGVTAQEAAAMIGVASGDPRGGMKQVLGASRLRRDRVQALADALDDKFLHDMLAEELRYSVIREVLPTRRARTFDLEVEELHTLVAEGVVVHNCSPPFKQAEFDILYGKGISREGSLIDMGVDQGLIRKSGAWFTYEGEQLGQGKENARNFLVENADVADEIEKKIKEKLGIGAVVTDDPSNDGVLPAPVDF

T1 sequence (Q00975 whole entry): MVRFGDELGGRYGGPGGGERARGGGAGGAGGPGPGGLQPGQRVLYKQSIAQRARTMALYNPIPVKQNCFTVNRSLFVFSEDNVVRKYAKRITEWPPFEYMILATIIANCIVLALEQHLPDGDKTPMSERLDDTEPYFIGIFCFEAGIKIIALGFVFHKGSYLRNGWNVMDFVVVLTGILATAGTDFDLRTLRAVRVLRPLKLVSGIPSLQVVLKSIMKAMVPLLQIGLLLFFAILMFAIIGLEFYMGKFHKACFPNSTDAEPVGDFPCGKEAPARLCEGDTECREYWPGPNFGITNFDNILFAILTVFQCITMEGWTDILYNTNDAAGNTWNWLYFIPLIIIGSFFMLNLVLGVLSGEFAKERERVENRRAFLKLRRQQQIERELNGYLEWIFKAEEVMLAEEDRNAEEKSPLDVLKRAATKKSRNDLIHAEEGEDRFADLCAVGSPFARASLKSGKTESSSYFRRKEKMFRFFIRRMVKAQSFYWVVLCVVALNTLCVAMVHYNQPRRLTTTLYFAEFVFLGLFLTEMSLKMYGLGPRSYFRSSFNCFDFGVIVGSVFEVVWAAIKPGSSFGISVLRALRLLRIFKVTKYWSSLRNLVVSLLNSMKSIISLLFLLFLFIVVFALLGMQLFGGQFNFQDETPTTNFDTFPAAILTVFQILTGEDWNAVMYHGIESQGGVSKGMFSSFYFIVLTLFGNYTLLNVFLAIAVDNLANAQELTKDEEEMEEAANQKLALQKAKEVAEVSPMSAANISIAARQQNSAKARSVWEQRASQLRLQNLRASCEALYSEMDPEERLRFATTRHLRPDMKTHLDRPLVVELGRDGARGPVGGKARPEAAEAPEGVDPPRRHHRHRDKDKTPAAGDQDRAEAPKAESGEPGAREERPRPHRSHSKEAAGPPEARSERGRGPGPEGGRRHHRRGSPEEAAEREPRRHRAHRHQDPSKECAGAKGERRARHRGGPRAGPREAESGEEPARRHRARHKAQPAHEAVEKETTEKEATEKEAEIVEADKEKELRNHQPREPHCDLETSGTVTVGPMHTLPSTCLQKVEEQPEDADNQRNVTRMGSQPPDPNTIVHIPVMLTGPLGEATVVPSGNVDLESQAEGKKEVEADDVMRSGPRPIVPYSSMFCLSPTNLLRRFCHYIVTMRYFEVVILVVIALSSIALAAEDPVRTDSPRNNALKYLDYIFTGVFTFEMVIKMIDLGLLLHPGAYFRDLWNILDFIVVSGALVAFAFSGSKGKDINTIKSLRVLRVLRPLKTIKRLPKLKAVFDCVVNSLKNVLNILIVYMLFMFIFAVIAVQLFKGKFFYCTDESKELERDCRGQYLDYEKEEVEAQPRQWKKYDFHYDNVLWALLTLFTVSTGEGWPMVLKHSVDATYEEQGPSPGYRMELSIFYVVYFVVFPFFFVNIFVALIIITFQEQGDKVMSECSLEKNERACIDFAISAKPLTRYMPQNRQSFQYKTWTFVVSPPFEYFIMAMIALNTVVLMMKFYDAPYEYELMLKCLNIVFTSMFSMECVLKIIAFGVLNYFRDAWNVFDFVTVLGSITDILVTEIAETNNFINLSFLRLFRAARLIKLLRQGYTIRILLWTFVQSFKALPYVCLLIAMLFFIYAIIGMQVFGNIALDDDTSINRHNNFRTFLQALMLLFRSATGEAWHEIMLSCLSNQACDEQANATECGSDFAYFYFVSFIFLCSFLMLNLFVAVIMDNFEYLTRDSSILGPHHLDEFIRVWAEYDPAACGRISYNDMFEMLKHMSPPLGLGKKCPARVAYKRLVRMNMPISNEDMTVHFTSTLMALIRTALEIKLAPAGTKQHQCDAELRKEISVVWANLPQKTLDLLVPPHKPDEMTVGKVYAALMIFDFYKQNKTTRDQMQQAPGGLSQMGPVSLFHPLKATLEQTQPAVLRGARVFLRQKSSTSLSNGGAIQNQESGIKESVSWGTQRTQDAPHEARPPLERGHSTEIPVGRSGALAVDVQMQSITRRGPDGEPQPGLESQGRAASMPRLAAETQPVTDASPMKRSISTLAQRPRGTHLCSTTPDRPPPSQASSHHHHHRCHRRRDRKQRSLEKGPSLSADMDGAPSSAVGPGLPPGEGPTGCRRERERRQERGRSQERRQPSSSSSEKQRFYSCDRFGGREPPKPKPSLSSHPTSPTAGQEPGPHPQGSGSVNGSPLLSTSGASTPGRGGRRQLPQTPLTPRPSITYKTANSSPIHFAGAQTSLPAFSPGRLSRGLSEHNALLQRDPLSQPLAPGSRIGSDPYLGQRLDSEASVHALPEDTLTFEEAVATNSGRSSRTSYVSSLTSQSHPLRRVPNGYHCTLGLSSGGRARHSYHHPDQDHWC
T1 sequence (Q02410 whole entry): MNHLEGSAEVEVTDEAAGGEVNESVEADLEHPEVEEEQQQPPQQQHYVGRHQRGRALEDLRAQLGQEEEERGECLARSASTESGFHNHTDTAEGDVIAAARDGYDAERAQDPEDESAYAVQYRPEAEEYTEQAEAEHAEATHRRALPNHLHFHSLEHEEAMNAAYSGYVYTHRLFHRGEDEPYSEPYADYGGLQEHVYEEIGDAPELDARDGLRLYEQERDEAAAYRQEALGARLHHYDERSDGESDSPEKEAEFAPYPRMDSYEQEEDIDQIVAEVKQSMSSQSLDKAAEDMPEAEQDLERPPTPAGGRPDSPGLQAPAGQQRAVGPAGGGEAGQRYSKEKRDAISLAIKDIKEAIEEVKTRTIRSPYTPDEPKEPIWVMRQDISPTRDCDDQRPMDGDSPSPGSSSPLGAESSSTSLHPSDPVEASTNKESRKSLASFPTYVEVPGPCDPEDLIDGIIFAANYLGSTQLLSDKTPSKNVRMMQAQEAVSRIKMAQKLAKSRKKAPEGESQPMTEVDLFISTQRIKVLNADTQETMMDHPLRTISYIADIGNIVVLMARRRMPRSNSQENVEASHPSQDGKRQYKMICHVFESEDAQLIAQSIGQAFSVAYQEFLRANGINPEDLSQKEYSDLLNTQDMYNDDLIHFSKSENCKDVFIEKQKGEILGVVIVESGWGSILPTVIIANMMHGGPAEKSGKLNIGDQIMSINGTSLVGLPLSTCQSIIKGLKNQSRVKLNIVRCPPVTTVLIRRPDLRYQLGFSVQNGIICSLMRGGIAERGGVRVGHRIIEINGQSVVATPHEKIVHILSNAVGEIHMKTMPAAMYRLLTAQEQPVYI
Sequence of Alkaline phosphatase, placental type (P05187 whole entry): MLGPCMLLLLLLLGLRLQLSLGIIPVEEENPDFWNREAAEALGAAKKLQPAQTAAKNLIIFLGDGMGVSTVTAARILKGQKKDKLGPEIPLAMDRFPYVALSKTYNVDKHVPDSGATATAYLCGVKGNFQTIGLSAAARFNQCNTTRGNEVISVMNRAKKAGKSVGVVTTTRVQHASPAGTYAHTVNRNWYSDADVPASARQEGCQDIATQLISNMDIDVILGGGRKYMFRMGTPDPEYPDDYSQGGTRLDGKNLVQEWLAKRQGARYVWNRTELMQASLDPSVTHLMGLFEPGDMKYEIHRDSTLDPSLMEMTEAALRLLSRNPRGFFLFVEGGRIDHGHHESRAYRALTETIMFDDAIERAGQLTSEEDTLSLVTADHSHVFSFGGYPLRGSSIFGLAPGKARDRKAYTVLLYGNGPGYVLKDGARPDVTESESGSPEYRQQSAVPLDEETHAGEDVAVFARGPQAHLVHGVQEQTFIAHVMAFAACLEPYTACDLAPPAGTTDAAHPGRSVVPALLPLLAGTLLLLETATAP
Sequence of Glyceraldehyde-3-phosphate dehydrogenase (P04406 whole entry): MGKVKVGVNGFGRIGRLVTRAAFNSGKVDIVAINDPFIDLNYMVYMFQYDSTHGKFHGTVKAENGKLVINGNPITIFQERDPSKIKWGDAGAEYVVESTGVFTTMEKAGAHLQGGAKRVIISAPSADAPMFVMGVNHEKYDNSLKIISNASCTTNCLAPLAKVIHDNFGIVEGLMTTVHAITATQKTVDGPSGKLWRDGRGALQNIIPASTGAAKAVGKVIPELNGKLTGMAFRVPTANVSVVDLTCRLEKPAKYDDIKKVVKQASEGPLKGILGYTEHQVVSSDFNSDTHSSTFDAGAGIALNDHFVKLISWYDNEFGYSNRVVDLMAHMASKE

Row | Compound | EC50 [3] | IC50 [5] | IC50 [6] | IC50 [7] | further results
1 | O=C(O)Cc1sc(Nc2ccc(Cl)cc2)nc1-c1cccs1 | – | – | – | – | IC50 [1]: 16 µM (active); IC50 [2]: > 50 µM (inactive)
2 | O=C(Cc1cccc2ccccc12)Nc1ccc(Br)cc1C(=O)O | 5.96 µM (active) | – | – | – | IC50 [4]: > 25 µM (active)
3 | CC1(C)CC(=O)c2c(-c3ccc(Cl)cc3)n[nH]c2C1 | – | 5.02 µM (active) | > 100 µM (not active) | > 100 µM (inactive) | –
4 | Nc1nnc(-c2ccc(Cl)cc2)[nH]1 | – | 24.5 µM (active) | > 100 µM (not active) | > 100 µM (inactive) | –
5 | CN1CSC2=C(C#N)C(c3cccc(OCc4ccccc4)c3)CC(=O)N2C1 (configuration not stated) | – | – | – | – | IC50 [1]: 7.59 µM (active); IC50 [2]: 47.6 µM (active)
6 | Cc1ccccc1C(=O)Nc1c(C(=O)N(CCN(C)C)Cc2ccco2)oc2ccccc12 | 0.473 µM (active) | – | – | – | EC50 [8]: 4.22 µM (active)
7 | COc1ccccc1/C=C/CN1CCCC(CCC(=O)NCc2ccc(F)c(F)c2)C1 (configuration not stated) | – | – | – | – | EC50 [9]: < 0.1 µM (active); EC50 [10]: 0.043 µM (active); EC50 [11]: > 60 µM (not active); EC50 [8]: 0.168 µM (active)
8 | COc1ccc(-c2n[nH]c3c2C(=O)CC(C)(C)C3)cc1 | – | 3.57 µM (active) | > 100 µM (not active) | > 100 µM (inactive) | –
9 | Cn1ncc2c1ncn1c(-c3ccc(Cl)cc3Cl)nnc21 | – | > 100 µM (inactive) | > 100 µM (not active) | > 100 µM (inactive) | –
10 | Cc1[nH]n(C)c(=O)c1C(=O)c1c(-c2c(Cl)cccc2Cl)noc1C | 4.22 µM (active) | – | – | – | AC50 [12]: 5.13 µM (active); EC50 [13]: 1.71 µM (active)

— ChEMBL document CHEMBL1201862, “PubChem BioAssay data set” (2004)
